Source: patent US20250170141A1, “MRGPRX2 MODULATORS AND RELATED METHODS OF TREATMENT” (Escient Pharmaceuticals, Inc., priority 2023, published 2025)
Values after ≈ are worked out from the molar mass of the structure shown. Where two headings read alike, the source gives them in different places.

Experiments:
[1] = Mouse Pharmacokinetic Studies (50 mg/kg oral gavage, plasma LC-MS/MS); assay type: in vivo; details: male C57BL/6 mice, non-fasted
Procedure: Compounds were formulated in 5% DMSO, 5% Solutol, and 90% PBS without Ca and Mg (pH 7.4) at a concentration of […]. Male C57BL/6 mice (n=6/compound) were administered a 50 mg/kg dose of each compound by oral gavage under a non-fasted condition. Blood samples were collected via the Submandibular vein onto K2-EDTA at 0.5, 1, 2, 4, 8 and 24 hours after dosing, and plasma was prepared and stored at −80° C. until analysis. Plasma sample preparation for analysis was done by protein precipitation using acetonitrile (including Verapamil as an internal standard) followed by centrifugation. Compound concentrations were determined in extracted plasma using LC-MS/MS relative to a 12-point standard curve covering the 1 to 4000 nM range. Non-compartmental analysis using Phoenix WinNonlin was used to estimate pharmacokinetic parameters including area under the curve, clearance, and half-life. The administered dose was confirmed by analysis of residual dosing material by UPLC-UV relative to a single point calibration sample.

[2] = test system: Human LAD2 cells; experiment: Mast Cell Beta-Hexosaminidase Release Assay (LAD2 cells, 500 nM Cortistatin-14); assay type: cell-based; details: read-out: MRGPRX2 Antagonist Activity
Procedure: Human LAD2 cells (NIH) were maintained in an incubator at 37° C. with 5% CO2 and cultured in StemPro-34 serum-free media (Gibco 10639011) supplemented with 2 mM L-glutamine, 100 U/ml penicillin, […] streptomycin and 100 ng/ml SCF (Invitrogen PEP0860), at a concentration of 2-5×10^5 cells/mL, with hemidepletion every 1-2 weeks.
Cells were transferred to SCF-Free medium at 2.5×10^5 cells/mL and kept in an incubator overnight. On the day of the assay, cells were washed twice in Assay Buffer (final concentrations 10 mM HEPES, 137 mM NaCl, 5.6 mM D-glucose, 2.7 mM KCl, 1 mM MgCl, 1.8 mM CalCl2, 0.4 mM Na2HPO4·7H2O, 0.04% BSA, pH=7.4) and plated in a 96-well v-bottom plate at 20,000 cells per well in 80 μL Assay Buffer. Antagonist compounds solubilized at 10 mM in DMSO were diluted in Assay Buffer to 10× final desired concentrations as a 10-point curve (10 μM final top concentration with 1:3 serial dilutions) and 10 μL added per well. Plates were then incubated for 1 hour at 37° C. Agonists were diluted in Assay Buffer to 10× desired concentrations and 10 μL of the appropriate agonist added to each well. The final concentration of Cortistatin-14 (Tocris 3374) used in antagonist assays was 500 nM. Final concentrations of DMSO were kept consistent across the plate. Plates were then incubated in a warm air oven for 30 minutes at 37° C., followed by centrifugation at 4° C. for 5 minutes at 450×g. 50 μL supernatant from each well was then transferred to a 96-well flat bottom plate containing 100 μL substrate solution per well (3.5 mg/mL p-Nitrophenyl-N-acetyl-o-D-glucosaminide (Sigma 487052) in Citrate Buffer containing a final concentration of 40 mM Citric Acid, 20 mM Na2HPO4·7H2O, pH=4.5). To the cell pellets left in the remaining assay buffer, 150 μL 0.1% Triton-X-100 was then added to each well, resuspended by pipetting up and down, and 50 μL cell lysates transferred to a second 96-well flat bottom plate containing 100 μL substrate solution per well. Plates containing transferred supernatant and cell lysates were then incubated in a warm air oven for 90 minutes at 37° C. After incubation, 50 μL of 400 mM Glycine buffer (pH 10.7) was added into each well and the plate was read on a Molecular Devices SpectraMax iD5 plate reader (absorbance at 405 nm with reference filter at 620 nm). After background subtraction, the percentage degranulation (percent beta-hexosaminidase release) was calculated as 100×(supernatant values)/(supernatant+lysate values), followed by analysis using GraphPad Prism software to calculate an IC50 value for each compound.
The activity ranges are denoted as follows: “+++++” denotes antagonist activity <100 nM; “++++” denotes antagonist activity between 100 and 500 nM; “+++” denotes activity between 501 and 1000 nM; “++” denotes activity between 1001 and 2500 nM; and “+” denotes activity >2500 nM.

[3] = Solubility Studies in FaSSIF, FeSSIF, FaSSGF (24 hours, room temperature, UPLC-UV); assay type: physicochemical; details: kinetic from dmso stock, 24 hours at room temperature
Procedure: Media according to Biorelevant Media protocols was prepared. 10 μL of 10 mM in DMSO stock solutions of test compounds was added to 96-well deep plate. 490 μL of FaSSIF, FeSSIF, or FaSSGF was then added into appropriate wells of 96-well deep plate. The plate was vortexed for 2 minutes then placed on a plate shaker for 24 hours at room temperature. The plate was centrifuged for 20 minutes, then supernatant was collected and filtered with […] syringe filter into UPLC vials for injection into UPLC-UV system. Concentration was calculated with a 3-point standard curve.

[4] = molecular target: T1, human MRGPRX2 (Homo sapiens, UniProt Q96LB1); experiment: MRGPRX2 activity: IP-One Gq HTRF assay in CHO cells, antagonism versus 0.3 uM Cortistatin-14; assay type: cell-based; details: versus 0.3 uM Cortistatin-14 agonist, CHO cells expressing human MRGPRX2, read-out: MRGPRX2 Antagonist Activity
T1 construct: expressed in transfected cells; host or cells: CHO cells, stably transfected (G418 and Hygromycin B selection)
T1 sequence (Q96LB1 1-330): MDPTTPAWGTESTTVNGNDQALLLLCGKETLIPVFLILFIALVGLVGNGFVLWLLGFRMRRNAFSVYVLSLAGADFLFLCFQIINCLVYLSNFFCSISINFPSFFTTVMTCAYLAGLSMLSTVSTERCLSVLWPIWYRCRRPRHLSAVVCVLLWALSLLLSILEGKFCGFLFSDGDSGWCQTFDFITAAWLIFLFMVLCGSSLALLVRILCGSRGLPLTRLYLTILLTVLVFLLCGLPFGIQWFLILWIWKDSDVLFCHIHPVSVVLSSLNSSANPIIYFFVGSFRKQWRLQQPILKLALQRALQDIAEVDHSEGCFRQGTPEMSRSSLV
In short: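 CHO cells stably expressing human MRGPRX2 were treated with a 10-point compound curve (30 uM top, 1:3) plus 0.3 μM Cortistatin-14 in LiCl-containing Tris buffer, pH 8. Incubation was 1 h at 37 °C then 1 h at room temperature; IP-1 was detected by HTRF and IC50 came from the HTRF ratio.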

[5] = Mast Cell Beta-Hexosaminidase Release Assay
[6] = fassgf or other biorelevant, solubility in FaSSGF, read-out: FaSSGF
[7] = solubility in FaSSIF, read-out: FaSSIF
[8] = solubility in FeSSIF, read-out: FeSSIF
[9] = male, C57BL/6, mouse, po, 50 mg/kg
[10] = Homo sapiens, LAD2, Mast Cell Beta-Hexosaminidase Release Assay

SMILES: CC(c1ccccc1F)c1c(F)ccc2c1NC(NCc1ncccc1F)=NS2(=O)=O (single isomer, unassigned) [Compound 10-1B]
- Cmax ([1]; 50 mg/kg): 14 µM
- T1/2 ([1]; 50 mg/kg): 1.8 h
- TBC ([1]; 50 mg/kg): 9 mL/min/kg
- IC50 [2, 5]: < 100 nM
- solubility kinetic at 24 h [3, 6]: 61 µM (≈ 27.2 µg/mL)
- solubility kinetic at 24 h [3, 7]: 133 µM (≈ 59.4 µg/mL)
- solubility kinetic at 24 h [3, 8]: 200 µM (≈ 89.3 µg/mL)
- IC50 [4]: < 100 nM

SMILES: CC(c1ccccc1F)c1c(F)ccc2c1NC(NCc1cccc(F)n1)=NS2(=O)=O (single isomer, unassigned) [Compound 10-2B]
- TBC ([1]; 50 mg/kg): 27 mL/min/kg
- Cmax [1, 9]: 4.4 µM
- half-life [1, 9]: 2.3 h
- IC50 [2, 5]: < 100 nM
- solubility kinetic at 24 h [3, 6]: 11 µM (≈ 4.91 µg/mL)
- solubility kinetic at 24 h [3, 7]: 162 µM (≈ 72.3 µg/mL)
- solubility kinetic at 24 h [3, 8]: 186 µM (≈ 83 µg/mL)
- IC50 [4]: < 100 nM

SMILES: Cc1c(F)cccc1CNC1=NS(=O)(=O)c2ccc(F)c(C(C)c3ccccc3F)c2N1 (single isomer, unassigned) [Compound 10-3A]
- Cmax ([1]; 50 mg/kg): 0.37 µM
- TBC ([1]; 50 mg/kg): 4.3 mL/min/kg
- half-life [1, 9]: 2.5 h
- IC50 [2, 10]: 100 to 500 nM
- IC50 [4]: < 100 nM

SMILES: Cc1c(F)cccc1CNC1=NS(=O)(=O)c2ccc(F)c(C(C)c3ccccc3F)c2N1 (single isomer, unassigned) [Compound 10-3B]
- Cmax ([1]; 50 mg/kg): 4.2 µM
- T1/2 ([1]; 50 mg/kg): 2 h
- TBC ([1]; 50 mg/kg): 41 mL/min/kg
- IC50 [2, 5]: < 100 nM
- IC50 [4]: < 100 nM

SMILES: CC(c1ccc(F)cc1)c1c(F)ccc2c1NC(NCc1ncccc1F)=NS2(=O)=O (single isomer, unassigned) [Compound 10-4A]
- TBC ([1]; 50 mg/kg): 11 mL/min/kg
- Cmax [1, 9]: 9.6 µM
- half-life [1, 9]: 4.4 h
- IC50 [2, 10]: 100 to 500 nM
- IC50 [4]: < 100 nM

SMILES: CC(c1ccc(F)cc1)c1c(F)ccc2c1NC(NCc1ncccc1F)=NS2(=O)=O (single isomer, unassigned) [Compound 10-4B]
- Cmax ([1]; 50 mg/kg): 10 µM
- T1/2 ([1]; 50 mg/kg): 2.2 h
- TBC ([1]; 50 mg/kg): 12 mL/min/kg
- IC50 [2, 5]: < 100 nM
- solubility kinetic at 24 h [3, 6]: 3 µM (≈ 1.34 µg/mL)
- solubility kinetic at 24 h [3, 7]: 23 µM (≈ 10.3 µg/mL)
- solubility kinetic at 24 h [3, 8]: 37 µM (≈ 16.5 µg/mL)
- IC50 [4]: < 100 nM

SMILES: CC(c1ccccc1F)c1c(F)ccc2c1NC(NCc1cccc(F)c1)=NS2(=O)=O (single isomer, unassigned) [Compound 10-5A]
- Cmax ([1]; 50 mg/kg): 2.8 µM
- TBC ([1]; 50 mg/kg): 50 mL/min/kg
- half-life [1, 9]: 2.2 h
- IC50 [2, 5]: 1000 to 2500 nM
- IC50 [4]: < 100 nM

SMILES: CC(c1ccccc1F)c1c(F)ccc2c1NC(NCc1cccc(F)c1)=NS2(=O)=O (single isomer, unassigned) [Compound 10-5B]
- Cmax ([1]; 50 mg/kg): 7.1 µM
- T1/2 ([1]; 50 mg/kg): 2.5 h
- TBC ([1]; 50 mg/kg): 12 mL/min/kg
- IC50 [2, 5]: < 100 nM
- solubility kinetic at 24 h [3, 6]: < 3.1 µM
- solubility kinetic at 24 h [3, 7]: 158 µM (≈ 70.4 µg/mL)
- solubility kinetic at 24 h [3, 8]: 136 µM (≈ 60.6 µg/mL)
- IC50 [4]: < 100 nM

SMILES: O=S1(=O)N=C(NCc2ncccc2F)Nc2c(Oc3ccccc3Cl)cc(F)cc21 [Compound 1-264, 5-(2-chlorophenoxy)-7-fluoro-3-(((3-fluoropyridin-2-yl)methyl)amino)-4H-benzo[e][1,2,4]thiadiazine 1,1-dioxide]
- TBC [1]: 32 mL/min/kg
- Cmax [1, 9]: 1.1 µM
- half-life [1, 9]: 3.8 h
- IC50 [2, 10]: < 100 nM
- solubility kinetic at 24 h [3, 6]: < 12.5 µM
- solubility kinetic at 24 h [3, 7]: < 12.5 µM
- solubility kinetic at 24 h [3, 8]: < 12.5 µM
- IC50 [4]: < 100 nM

SMILES: O=S1(=O)N=C(NCc2ncccc2F)Nc2c1ccc(F)c2Oc1ccccc1Cl [Compound 2-1, 5-(2-chlorophenoxy)-6-fluoro-3-(((3-fluoropyridin-2-yl)methyl)amino)-4H-benzo[e][1,2,4]thiadiazine 1,1-dioxide]
- TBC [1]: 8.8 mL/min/kg
- Cmax [1, 9]: 11 µM
- half-life [1, 9]: 2.8 h
- IC50 [2, 10]: 100 to 500 nM
- solubility kinetic at 24 h [3, 6]: < 12.5 µM
- solubility kinetic at 24 h [3, 7]: < 12.5 µM
- solubility kinetic at 24 h [3, 8]: < 12.5 µM
- IC50 [4]: < 100 nM

SMILES: CC(c1ccccc1F)c1c(F)ccc2c1NC(NCc1ncccc1F)=NS2(=O)=O (stereo not shown) [Compound 9-1, 6-fluoro-5-(1-(2-fluorophenyl)ethyl)-3-(((3-fluoropyridin-2-yl)methyl)amino)-4H-benzo[e][1,2,4]thiadiazine 1,1-dioxide]
- TBC [1]: 13 mL/min/kg
- Cmax [1, 9]: 8.7 µM
- half-life [1, 9]: 1.8 h
- IC50 [2, 10]: < 100 nM
- solubility kinetic at 24 h [3, 6]: 19 µM (≈ 8.48 µg/mL)
- solubility kinetic at 24 h [3, 7]: 114 µM (≈ 50.9 µg/mL)
- solubility kinetic at 24 h [3, 8]: 74 µM (≈ 33 µg/mL)
- IC50 [4]: < 100 nM

SMILES: C[C@@H](c1ccccc1F)c1c(F)c(F)cc2c1NC(NCc1ncccc1F)=NS2(=O)=O [Compound 10-6A, (S)-6,7-difluoro-5-(1-(2-fluorophenyl)ethyl)-3-(((3-fluoropyridin-2-yl)methyl)amino)-4H-benzo[e][1,2,4]thiadiazine 1,1-dioxide]
- TBC [1]: 11 mL/min/kg
- Cmax [1, 9]: 11 µM
- half-life [1, 9]: 2.1 h
- IC50 [2, 10]: < 100 nM
- solubility kinetic at 24 h [3, 6]: 27 µM (≈ 12.5 µg/mL)
- solubility kinetic at 24 h [3, 7]: 30 µM (≈ 13.9 µg/mL)
- solubility kinetic at 24 h [3, 8]: 178 µM (≈ 82.7 µg/mL)
- IC50 [4]: < 100 nM

SMILES: C[C@H](c1ccccc1F)c1c(F)c(F)cc2c1NC(NCc1ncccc1F)=NS2(=O)=O [Compound 10-6B, (R)-6,7-difluoro-5-(1-(2-fluorophenyl)ethyl)-3-(((3-fluoropyridin-2-yl)methyl)amino)-4H-benzo[e][1,2,4]thiadiazine 1,1-dioxide]
- TBC [1]: 33 mL/min/kg
- Cmax [1, 9]: 2.7 µM
- IC50 [2, 10]: 100 to 500 nM
- IC50 [4]: 100 to 500 nM
